# Columns and labels:
# [1] = cited from earlier work
# [2] = target: BCL-XL (Homo sapiens, UniProt Q07817); details: selectivity profile; cited from earlier work
# [3] = target: MCL-1 (Homo sapiens, UniProt Q07820); details: selectivity profile; cited from earlier work
# [4] = tested on: BCL-XL-dependent cells, such as platelets; details: cited from earlier work
# [5] = target: T1, BFL-1 (BCL2A1/A1) (Homo sapiens, UniProt Q16548); details: selectivity profile; cited from earlier work
# T1 sequence (Q16548 1-175): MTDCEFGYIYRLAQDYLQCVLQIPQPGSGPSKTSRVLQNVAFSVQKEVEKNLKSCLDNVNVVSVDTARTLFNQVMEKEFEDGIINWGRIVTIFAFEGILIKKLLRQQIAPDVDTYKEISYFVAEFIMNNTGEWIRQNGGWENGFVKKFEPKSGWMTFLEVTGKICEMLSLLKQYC
# [6] = tested on: CT26 tumor cells; test: CT26 syngeneic mouse colon carcinoma model; format: in vivo, BALB/c female mice
# Description: The CT26 cells (see Wang et al. (1995) J. Immunol. 154:4685-4692) were injected into the right flank of BALB/c female mice at a concentration of 5×10^5 cells per mouse in RPMI 1640. Tumors were monitored until the average size of all tumors reached 65-70 mm^3. […] The two 30 mpk doses were given 10 days apart. […] Mice receiving both cisplatin and Drug were administered with cisplatin (IP) according to one of the regimens described above, and with Drug A as described above. In mice receiving combination treatment, Drug A was administered one day after cisplatin. Tumors were measured in two dimensions with calipers, and tumor volume was calculated as: length×width×width×0.5, where length was the larger of the two measurements.
# [7] = tested on: HL60 cells; test: In vitro phagocytosis of HL60 cells by human monocyte-derived macrophages; format: cell-based; details: 20 nM Drug A, 125 nM venetoclax; FIG. 5A
# Description: CD14^+ monocytes were purified by negative selection using the Classical Monocytes Isolation Kit, human (Miltenyi Biotec) and LS columns (Miltenyi Biotec) according to the manufacturer's protocol. CD14^+ monocytes were seeded into 150 mm tissue culture dishes (Corning) at 6 million cells per dish in 25 mL medium comprised of RPMI complete media, supplemented with 50 ng/mL M-CSF (Miltenyi Biotec), 10% human FBS serum (Thermo Fisher Scientific), 1% penicillin/streptomycin, and 1% GlutaMAX. Cells were cultured for seven to eleven days.
# HL60 and OCI-AML3 cells were washed once in PBS and labeled with the Celltrace CFSE Cell Proliferation kit (Thermo Fisher Scientific) in suspension with 300 nM CFSE (carboxyfluorescein succinimidyl ester) according to the manufacturer's instructions and resuspended in RPMI complete media. […] Prior to incubation with macrophages, cells were resuspended in RPMI. Macrophages were detached from culture plates by washing once with PBS and incubation in TrypLE Select for 20 minutes at 37° C. Cells were removed with a cell scraper (Corning), washed in PBS, and resuspended in RPMI. […]
# Briefly HL60 cells and OCI-AML3 cells (i.e., “target cells”) were labeled with CFSE (carboxyfluorescein succinimidyl ester) and treated with venetoclax for 48 hours. […] Macrophage cells were pelleted, stained, and analyzed via flow cytometry. […]
# [8] = tested on: RS4;11 leukemia cells; test: RS4;11 xenograft model (acute leukemia); format: in vivo, NOD-SCID female mice
# Description: The RS4;11 cells (described in Stong et al. (1985) Blood. 65(1): 21-31) was injected into the right flank of NOD-SCID female mice at a concentration of 5×10^6 cells per mouse using a 1:1 matrigel (Corning) and RPMI 1640 ratio. Tumors were monitored until the average size of all tumors reached 190 mm^3. […] The formulation for Venetoclax was a ratio of DMSO:ethanol:Cremophor EL:dextrose 5% in water (D5W) was […], by volume. Venetoclax-treated mice were dosed with 250 μg of Venetoclax by oral gavage 2 times total, 3 days apart. Drug A-treated mice were dosed IP at 10 mg/kg, 4 times total, 3-4 days apart. […] Tumors were measured in two dimensions with calipers, and tumor volume was calculated as: length×width×width×0.5, where length was the larger of the two measurements.
# MCL-1, sequence (Q07820 whole entry, species assumed): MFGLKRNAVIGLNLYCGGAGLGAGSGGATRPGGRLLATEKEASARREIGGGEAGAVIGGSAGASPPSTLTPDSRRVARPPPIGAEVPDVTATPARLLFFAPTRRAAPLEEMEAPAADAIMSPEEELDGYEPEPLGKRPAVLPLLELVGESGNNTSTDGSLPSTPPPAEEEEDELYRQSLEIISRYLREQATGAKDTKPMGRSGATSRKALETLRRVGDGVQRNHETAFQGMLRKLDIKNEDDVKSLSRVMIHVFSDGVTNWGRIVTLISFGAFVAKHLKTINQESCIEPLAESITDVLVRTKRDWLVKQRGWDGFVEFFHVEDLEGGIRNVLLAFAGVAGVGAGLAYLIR
# BCL-XL, sequence (Q07817 whole entry, species assumed): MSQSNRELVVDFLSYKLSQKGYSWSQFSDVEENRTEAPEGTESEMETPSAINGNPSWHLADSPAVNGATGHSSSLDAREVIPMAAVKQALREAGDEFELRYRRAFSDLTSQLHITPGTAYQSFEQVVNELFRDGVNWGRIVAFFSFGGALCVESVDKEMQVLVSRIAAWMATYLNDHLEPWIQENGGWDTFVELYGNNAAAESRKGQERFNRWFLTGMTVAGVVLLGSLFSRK
smiles,measurement,setting,value
"[NH2][Pt]1([NH2])[O]C(=O)C2(CCC2)C(=O)[O]1 [Carboplatin, platinum, diammine [1,1cyclobutane-dicarboxylato(2-)-0,0]-, (SP-4-2)]",aqueous solubility,[1],water-soluble
"O=C(c1cc(-c2cc3c(cc2C(=O)N2Cc4ccccc4C[C@H]2CN2CCOCC2)OCO3)n2c1CCCC2)N(c1ccccc1)c1ccc(O)cc1 [Drug S55746, (S)—N-(4-hydroxyphenyl)-3-(6-(3-(morpholinomethyl)-1,2,3,4-tetrahydroisoquinoline-2-carbonyl)benzo[d][1,3]dioxol-5-yl)-N-phenyl-5,6,7,8-tetrahydroindolizine-1-carboxamide]",affinity for BCL-XL,[2],poor affinity
same,binding to MCL-1,[3],no significant binding
same,cytotoxic activity,[4],no cytotoxic activity
same,binding to BFL-1 (BCL2A1/A1),[5],no significant binding
"N.N.[Cl][Pt][Cl] [cisplatin, dichloroplatinum diammoniate]",mice with a tumor volume<500 mm^3,[6]; cisplatin two 5 mpk doses regimen,10%
same,tumor growth,"[6]; day 20, cisplatin two 5 mpk doses 10 days apart, Drug A two 30 mpk doses, FIG. 2A",inhibited somewhat
"CC1(C)CCC(CN2CCN(c3ccc(C(=O)NS(=O)(=O)c4ccc(NCC5CCOCC5)c([N+](=O)[O-])c4)c(Oc4cnc5[nH]ccc5c4)c3)CC2)=C(c2ccc(Cl)cc2)C1 [venetoclax, 4-(4-{[2-(4-chlorophenyl)-4,4dimethylcyclohex-1-en-1-yl]methyl}piperazin-1-yl)-N-({3-nitro-4-[(tetrahydro-2H-pyran-4ylmethyl)amino]phenyl}sulfonyl)-2-(1H-pyrrolo[2,3-b]pyridin-5-yloxy)benzamide]",macrophage-mediated phagocytosis of HL60 cells,[7],stimulated macrophage-mediated phagocytosis of HL60 cells
same,average tumor volume,"[8]; Day 65, re-treated mice (n=5/group)",about 1685 mm^3
same,tumor-free (TF) mice,[8]; day 41,1 out of 10
same,tumor growth (tumor volume),"[8]; venetoclax 250 μg oral gavage 2 times, Drug A 10 mg/kg IP 4 times, FIG. 1A",inhibited tumor growth
same,aqueous solubility,[1],very low aqueous solubility
